Consider 90 compounds from PubChem BioAssay AID812 (SRMLSC, 2007).

As a reminder, the EC50 is the concentration at which the effect is half-maximal.

Activity calls are given as the source filed them. No rule for the calls is given here.

For the test, the system named is Saccharomyces cerevisiae lifespan extension, no nicotinamide. Description: yeast lifespan extension without nicotinamide, confirmation, yeast lifespan extension project, S. cerevisiae (AID 812).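 Also: growth read as optical density after 42 hours of incubation at 30C.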
Consider `CC(C)c1ccc(C2=C(O)c3ccccc3C(=O)C2=O)cc1`, for which the EC50 is > 40 µM (inactive).

On to `Cc1cc(C)c(NC(=O)/C(=C/c2ccccc2)c2ccccc2)c(C)c1`, for which the EC50 was > 40 µM (inactive).

`COc1cc(/C=C/C(=O)C2C(=O)C=C(C)OC2=O)cc(OC)c1O` (stereo not given): the EC50 is > 40 µM (inactive).

As for `CN(c1ccccc1)c1nc2ccsc2c(=O)s1`, the EC50 is > 40 µM (inactive).

With `O=C(NCc1ccco1)c1c(O)c2cccc3c2n(c1=O)CCC3`, the EC50 was > 40 µM (inactive).

On to `COc1ccc(N(C)C(=S)Nc2ccc3nc(C)c(C)nc3c2)cc1`, for which the EC50 is > 40 µM (inactive).

For `Fc1cccc2sc(Nc3nnc(-c4ccccc4)o3)nc12`, the EC50 is > 40 µM (inactive).

As to `CCOc1ccc(N=Cc2c(O)c3ccccc3oc2=O)cc1`, the EC50 was > 40 µM (inactive).

In the case of `Oc1ccc(NCc2ccccc2OCc2ccccc2F)cc1`, the EC50 was > 40 µM (inactive).

Turning to `O=C1Nc2cc(Cl)c(Cl)cc2N(O)N1c1cc(Cl)cc(Cl)c1`, the EC50 was > 40 µM (inactive).

On to `CN1C(=O)C(Cl)(Cl)C(=O)c2ccccc21`, for which the EC50 was > 40 µM (inactive).

Take `CC1CC(C)CN(S(=O)(=O)c2cccc(C(=O)N3C(=O)c4cccc(N)c4C3=O)c2)C1` (stereo not given): the EC50 was > 40 µM (inactive).

Regarding `Cc1ccc(N(C)C(=O)Oc2ccc(C(=O)c3ccc(Cl)cc3)cc2)cc1`, the EC50 was > 40 µM (inactive).

Take `COc1ccc(C(=O)C(CN2CCOCC2)c2ccccc2)cc1F` (stereo not given): the EC50 was > 40 µM (inactive).

For `CC1Cc2ccccc2N1C(=O)Cn1cnc2ccccc2c1=O` (stereo not given), the EC50 was > 40 µM (inactive).

On to `COc1ccc(NC(=S)N2CCN(CCN=CC3=C(O)CC(c4ccccc4)CC3=O)CC2)cc1` (stereo not given), for which the EC50 was > 40 µM (inactive).

For `CCSc1ccccc1C(=O)n1nnc2ccccc21`, the EC50 was > 40 µM (inactive).

Regarding `O=c1c2c3c(sc2ncn1/N=C/c1ccc([N+](=O)[O-])o1)CCCC3`, the EC50 was > 40 µM (inactive).

For `CCOC(=O)C1C(c2cccs2)NC(=O)N(C)C1(O)C(F)(F)F` (stereo not given), the EC50 was > 40 µM (inactive).

Regarding `CC1CCc2cc(F)cc3c(O)c(C(=O)NCc4ccco4)c(=O)n1c23` (stereo not given), the EC50 was > 40 µM (inactive).

In the case of `COc1ccc(-c2cc(N)n(S(=O)(=O)c3c(F)c(F)c(F)c(F)c3F)n2)cc1OC`, the EC50 is 26.2 µM.

Take `Nc1sc(-c2ccccc2)cc1C(=O)O`: the EC50 is > 40 µM (inactive).

Regarding `c1cncc(-c2nn[nH]n2)c1`, the EC50 is > 40 µM (inactive).

Take `O=C1NC(=O)N(CCC2=CCCCC2)C(=O)/C1=C\c1cccs1`: the EC50 is > 40 µM (inactive).

As to `CCc1ccc2c(c1)CCCN2C(=O)c1ccccc1C(=O)O`, the EC50 was > 40 µM (inactive).

In the case of `Cc1ccc(CNc2nc3ccccc3s2)s1`, the EC50 is > 40 µM (inactive).

For the compound `CC(=O)C(C(C)=O)c1c(Cl)c(O)c(O)c2c(C(=O)c3ccccc3)coc12`, the EC50 is > 40 µM (inactive).

For `CCOc1ccc(/C=C2/C(=O)NC(=O)N(CCc3ccc(F)cc3)C2=O)cc1`, the EC50 is > 40 µM (inactive).

On to `O=C(N/N=C/c1ccccc1)c1c(O)c2ccccc2[nH]c1=O`, for which the EC50 is > 40 µM (inactive).

In the case of `CCCc1cc(=O)oc2cc(C)c(CN3CCCC3)c(O)c12`, the EC50 was > 40 µM (inactive).

`CC(=O)Nc1nc(C)c(Oc2ccccc2)c(=O)[nH]1`: the EC50 was > 40 µM (inactive).

Regarding `CCc1c(C)c(C#N)c2nc3ccccc3n2c1Cl`, the EC50 is > 40 µM (inactive).

With `O=S1(=O)C=C(Sc2nc3ccccc3s2)c2ccccc21`, the EC50 is > 40 µM (inactive).

Take `COc1ccc(-c2cc(C(F)(F)F)nc(S(C)(=O)=O)n2)cc1`: the EC50 is > 40 µM (inactive).

On to `O=C1c2ccccc2C(=O)N1OCc1ccccc1`, for which the EC50 was > 40 µM (inactive).

In the case of `COCCOC(=O)/C(=C/c1ccc(OC(=O)c2ccccc2)cc1)C(C)=O`, the EC50 was > 40 µM (inactive).

On to `CNC(=O)/C(C#N)=C/c1c(F)cccc1Cl`, for which the EC50 was > 40 µM (inactive).

Take `CCc1ccc2nc(N3C(=O)C(O)=C(C(=O)c4ccco4)C3c3cccs3)sc2c1` (stereo not given): the EC50 was > 40 µM (inactive).

With `CC(=C1C(=O)c2ccccc2C1=O)N1CCN(c2ccccn2)CC1`, the EC50 was > 40 µM (inactive).

With `CCOC(=O)CCCNC(=O)COc1ccccc1C#N`, the EC50 is > 40 µM (inactive).

As to `COc1ccccc1N(CN1CCCC1=O)C(=O)c1c(F)cccc1F`, the EC50 is > 40 µM (inactive).

For `CCCCN(CCCC)c1ccc(C(=O)c2ccccc2C(=O)O)c(O)c1`, the EC50 was > 40 µM (inactive).

As to `CCCC(=Nc1ccccc1OC)C1=C(O)CC(c2ccccc2)CC1=O` (stereo not given), the EC50 was > 40 µM (inactive).

As to `ClC(Cl)(c1nnnn1-c1ccccc1)c1nnnn1-c1ccccc1`, the EC50 was > 40 µM (inactive).

Take `COC(=O)c1cc(OC)c(OC)cc1NC(=S)Nc1cccc(C(C)=O)c1`: the EC50 was > 40 µM (inactive).

On to `O=[N+]([O-])c1cc2oc3c(c2c(C=NCc2ccccc2)c1O)CCCC3`, for which the EC50 is > 40 µM (inactive).

`COc1ccc(CC(=O)Nc2ccc3c(c2)CCC3)cc1S(=O)(=O)N1CCOCC1`: the EC50 is > 40 µM (inactive).

Turning to `CCOc1ccccc1/C=c1\sc2ncnn2c1=O`, the EC50 is > 40 µM (inactive).

Consider `COC(=O)c1sc2ncn(-n3c(C)ccc3C)c(=O)c2c1C`, for which the EC50 is > 40 µM (inactive).

Take `O=C(NCc1cccnc1)c1ccc(S(=O)(=O)N2CCCCC2)cc1`: the EC50 was > 40 µM (inactive).

As for `C=CCn1c(C)cc(C(=O)CSc2nc3ccccc3c(=O)[nH]2)c1C`, the EC50 was > 40 µM (inactive).

`CC(C)n1c(-c2ccccc2F)n[nH]c1=S`: the EC50 is > 40 µM (inactive).

Turning to `Cc1ccc(/C=C/C(=O)C2C(=O)c3ccccc3C2=O)cc1`, the EC50 is > 40 µM (inactive).

In the case of `Cc1c(O)c(S(=O)c2ccccc2)c(=O)n(-c2ccccc2)c1-c1ccccc1` (stereo not given), the EC50 was > 40 µM (inactive).

On to `CCOc1ccc2nc(NCCNC(=O)Nc3ccccc3)c(C#N)cc2c1`, for which the EC50 is > 40 µM (inactive).

As to `CCCn1[nH]cc(SC)c(=O)c1=O`, the EC50 was > 40 µM (inactive).

Take `CC(C)OCCCNS(=O)(=O)c1ccc2ccccc2c1`: the EC50 was > 40 µM (inactive).

For the compound `CCCCCCCCn1c(=O)c(C(=O)OCC)c(O)c2ccccc21`, the EC50 is > 40 µM (inactive).

Take `CCOC(=O)CN1C(=O)N[C@H](c2ccc(Br)cc2)C(C(C)=O)=C1C`: the EC50 is > 40 µM (inactive).

Regarding `Cc1ccccc1Oc1cc(-n2ncc(Cl)c(Cl)c2=O)ncn1`, the EC50 is > 40 µM (inactive).

As for `CN(C)c1ccc(S(=O)(=O)c2ccc(Cl)cc2)cc1`, the EC50 is > 40 µM (inactive).

As for `O=C(c1cnn2c(C(F)F)cc(C3CC3)nc12)N1CCCC1`, the EC50 was > 40 µM (inactive).

On to `O=c1c2ccccc2nc(-c2cccc(Cl)c2)n1O`, for which the EC50 is > 40 µM (inactive).

As to `O=Cc1cccn1-c1sc2c(c1C(=O)O)CCCC2`, the EC50 is > 40 µM (inactive).

Take `Cc1ncc(C23CC4CC(CC(C4)C2)C3)[nH]1`: the EC50 is > 40 µM (inactive).

Turning to `CCOc1cc(/C=C\[N+](=O)[O-])ccc1OCC(=O)Nc1ccccc1C`, the EC50 is > 40 µM (inactive).

With `CCOC(=O)c1[nH]nc(C(=O)c2ccc(Br)cc2)c1O`, the EC50 is > 40 µM (inactive).

`Cc1[nH]n(-c2ccccc2)c(=O)c1N=Nc1nccs1`: the EC50 is > 40 µM (inactive).

Turning to `CCCCCCCC(=O)N/N=C(/C)c1c(O)cc(C)oc1=O`, the EC50 was > 40 µM (inactive).

As to `COc1ccc(CNC(=O)c2c(O)c3cccc4c3n(c2=O)CCC4)cc1`, the EC50 is > 40 µM (inactive).

In the case of `O=C(O)c1cccc2c1C(=O)N(C1CCCCC1)C2`, the EC50 is > 40 µM (inactive).

`O=C(Nc1ccc(S(=O)(=O)N2CCc3ccccc3C2)cc1)c1ccccc1`: the EC50 was > 40 µM (inactive).

As for `CC(=O)c1c(C)[nH]c(C(=O)OC2CCCCC2=O)c1C` (stereo not given), the EC50 is > 40 µM (inactive).

Consider `COc1ccc(CN2C(=O)/C(=C/c3ccncc3)SC2=S)cc1`, for which the EC50 is > 40 µM (inactive).

In the case of `O=C(c1c[nH]c(C(=O)C(Cl)(Cl)Cl)c1)c1ccccc1Cl`, the EC50 is 7.18 µM.

As to `Cc1ccc(C(=O)c2no[n+]([O-])c2C(=O)c2ccc(C)cc2)cc1`, the EC50 is > 40 µM (inactive).

Take `CC1(C)CC(=O)C2=C(C1)OC1=C(C(=O)CC(C)(C)C1)C2c1ccc(O)cc1O`: the EC50 was > 40 µM (inactive).

As to `COc1ccc(/C=N/NC(=O)c2csc(-n3nc(C)cc3C(F)(F)F)n2)cc1`, the EC50 is > 40 µM (inactive).

With `Cc1ccc(Oc2nc3ccccc3n3c(C)nnc23)c(C)c1`, the EC50 is > 40 µM (inactive).

`CN(C)/C=C(/C(=O)c1ccc(Cl)cc1Cl)S(=O)(=O)c1ccc(Cl)cc1`: the EC50 was > 40 µM (inactive).

Turning to `CCCCNC(=O)/C(C#N)=C/c1cccnc1`, the EC50 was > 40 µM (inactive).

Turning to `COc1cc(OC)cc(-c2nc3ccccc3c(=O)n2OC(=O)c2ccc(C)c(C)c2)c1`, the EC50 is > 40 µM (inactive).

`CCOc1ccc(C(=O)C(CN2CCOCC2)c2ccccc2)cc1` (stereo not given): the EC50 was > 40 µM (inactive).

`O=C1c2ccccc2C(Nc2ccc3c(c2)OCCO3)N1c1ccccn1` (stereo not given): the EC50 is > 40 µM (inactive).

As for `CCCCCOC(=O)CSc1nc2c(c(=O)[nH]c(=O)n2C)n1CCc1ccccc1`, the EC50 was > 40 µM (inactive).

On to `O=C1/C(=N/n2cnnc2)c2ccccc2N1Cc1ccccc1`, for which the EC50 is > 40 µM (inactive).

Consider `CC1=CN2C(=N)/C(=C/c3ccc([N+](=O)[O-])o3)C(=O)N=C2S1`, for which the EC50 was > 40 µM (inactive).

On to `CCCCC(=Nc1ccc(N)cc1)C1=C(O)C(C(=O)OC)C(C)(C)CC1=O` (stereo not given), for which the EC50 is > 40 µM (inactive).

On to `CC(C)(C)OC(=O)[C@H]1[C@H](c2ccc([N+](=O)[O-])cc2)C2(C(=O)c3ccccc3C2=O)C2c3ccccc3C=NN21` (stereo not given in full), for which the EC50 was > 40 µM (inactive).

In the case of `C/C(=N\NC(=O)c1ccccc1O)c1c(O)cc(C)oc1=O`, the EC50 is > 40 µM (inactive).
